Measurements: US6245796A, “Tricyclic pyrrole or pyrazole derivative” (priority 1997, dated 2001)
pKi: −log10 of the molar value. Structures can show the parent of a compound that is named as a salt. Where two headings read alike, the source gives them in different places.

How the values were obtained:
5-HT2A receptor = 5-HT2A receptor (Homo sapiens, UniProt P28223); test: biochemical; type: binding
Procedure: (§1) The 5-HT2C and 5-HT2A receptors: Carried out by [^3 H] 5-HT binding assay in accordance with the method of A. Pazos et al., Eur. J. Pharmacol., 106, 539-546 (1985) or S. Havlik and S. J. Peroutka, Brain Res., 584, 191-196 (1992).
(§2) Using the above method, a drug concentration which inhibits 50% of receptor binding of ligand (IC50 value) was calculated, and a Ki value which represents affinity for the receptor was obtained by the following formula.
(§3) ([L]: ligand concentration, [Kd]: dissociation constant)

5-HT2C receptor = test: [3H] 5-HT binding assay, 5-HT2C receptor; conditions: Ki=IC50/(1+[L]/[Kd]), read-out: Binding test Ki, 5-HT2C receptor
Procedure: as §1, §2, §3

5-HT2A receptor, sequence (P28223 whole entry): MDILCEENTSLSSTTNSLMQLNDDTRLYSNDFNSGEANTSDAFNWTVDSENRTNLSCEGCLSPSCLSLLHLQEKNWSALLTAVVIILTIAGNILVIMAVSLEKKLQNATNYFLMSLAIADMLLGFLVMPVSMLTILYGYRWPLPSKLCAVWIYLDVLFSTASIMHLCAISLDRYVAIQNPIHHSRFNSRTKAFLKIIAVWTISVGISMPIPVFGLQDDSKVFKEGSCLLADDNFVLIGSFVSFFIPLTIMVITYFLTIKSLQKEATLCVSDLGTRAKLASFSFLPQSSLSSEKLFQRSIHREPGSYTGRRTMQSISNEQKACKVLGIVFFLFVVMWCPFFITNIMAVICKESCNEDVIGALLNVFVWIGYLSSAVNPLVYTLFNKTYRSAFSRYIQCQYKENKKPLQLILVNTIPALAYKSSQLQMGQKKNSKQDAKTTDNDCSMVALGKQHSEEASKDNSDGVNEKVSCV

Structure (SMILES) | pKi (5-HT2A receptor) | pKi (5-HT2C receptor) | pKi (5-HT2A receptor; [3H] 5-HT binding, Ki=IC50/(1+[L]/[Kd]), read-out: Binding test Ki, 5-HT2A receptor)
CCc1nn(CCN)c2c1ccc1occc12 [Example 55, 2-(3-Ethyl-1H-furo[2,3-g]indazol-1-yl)ethylamine dihydrochloride] | 7.30 | 8.39 | 
COc1nn(C[C@H](C)N)c2c1ccc1occc12 [Example 37, (S)-2-(3-Methoxy-1H-furo[2,3-g]indazol-1-yl)-1-methylethylamine fumarate] |  | 9.30 | 8.06
NCCn1ncc2ccc3sc(Br)cc3c21 [Example 20, 2-(7-Bromo-1H-thieno[2,3-g]indazol-1-yl)ethylamine hydrochloride] | 7.74 | 9.10 | 
